# Target: T1, Recombinant human renin (Homo sapiens, UniProt P00797)
# T1 construct: isolate the active form (residues 67-406); made in house; host or cells: FreeStyle 293-F cells (transient expression of pcDNA3.1(+)/hREN)
# T1 sequence (P00797 67-406): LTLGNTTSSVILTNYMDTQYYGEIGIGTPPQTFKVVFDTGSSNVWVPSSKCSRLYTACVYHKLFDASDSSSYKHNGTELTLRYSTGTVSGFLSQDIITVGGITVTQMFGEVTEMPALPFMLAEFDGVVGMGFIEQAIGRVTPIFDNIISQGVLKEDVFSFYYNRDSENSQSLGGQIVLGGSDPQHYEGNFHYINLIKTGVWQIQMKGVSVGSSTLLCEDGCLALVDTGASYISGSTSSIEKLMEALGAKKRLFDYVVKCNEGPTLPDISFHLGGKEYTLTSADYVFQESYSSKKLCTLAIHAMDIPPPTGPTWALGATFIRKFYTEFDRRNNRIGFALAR
# Test: In vitro enzymatic activity assay of renin inhibitors (fluorogenic peptide substrate)
# Format: biochemical
# Conditions: not given
# Outline: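 Enzyme: recombinant human renin, 3 nM final, 10 min compound pre-incubation at 37 °C; buffer 50 mM Hepes pH 7.4 with 0.1 mg/mL BSA or extra 2% BSA; 5% DMSO.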
row,SMILES,IC50 [µM]
1,"COCCCn1c([C@@H]2CCCN(C(=O)[C@@H]3CN(C(=O)Oc4ccc(Cl)cc4)C[C@H]3N)C2)nc2ccccc21 [Compound 407, (3S,4R)-4-chlorophenyl 3-amino-4-((R)-3-(1-(3-methoxypropyl)-1H-benzo[d]imidazol-2-yl)piperidine-1-carbonyl)pyrrolidine-1-carboxylate]",> 1

# Same assay, conditions: read-out: IC50 of Exemplified Compounds Against Renin
row,SMILES,IC50 [µM]
1,"COCCCn1c([C@@H]2CCCN(C(=O)C[C@H](N)CNC(=O)Nc3ccccc3)C2)nc2ccccc21 [Compound 269, 1-((S)-2-amino-4-((R)-3-(1-(3-methoxypropyl)-1H-benzo[d]imidazol-2-yl)piperidin-1-yl)-4-oxobutyl)-3-phenylurea]",0.1 to 1
2,"O=C(Nc1ccc2c(c1)OCCO2)N1CCCC(c2nc3ccccc3[nH]2)C1 (stereo not shown) [Compound 15, 3-(1H-benzo[d]imidazol-2-yl)-N-(2,3-dihydrobenzo[b][1,4]dioxin-6-yl)piperidine-1-carboxamide]",> 1
3,COCCCn1c([C@@H]2CCCN(C(=O)[C@@H]3CN(S(=O)(=O)c4ccc5[nH]c(=O)[nH]c5c4)C[C@H]3N)C2)nc2ccccc21 [Compound 338],< 0.1
4,"COCCCn1c([C@@H]2CCCN(C(=O)C[C@H](N)CNS(=O)(=O)c3ccc(OC)cc3)C2)nc2ccccc21 [Compound 321, N-((S)-2-amino-4-((R)-3-(1-(3-methoxypropyl)-1H-benzo[d]imidazol-2-yl)piperidin-1-yl)-4-oxobutyl)-4-methoxybenzenesulfonamide]",0.1 to 1
5,"COCCCn1c([C@@H]2CCCN(C(=O)C[C@H](N)Cc3ccc(-c4ccc(NC(=O)COC)cc4)cc3)C2)nc2ccccc21 [Compound 197, N-(4′-((R)-2-amino-4-((R)-3-(1-(3-methoxypropyl)-1H-benzo[d]imidazol-2-yl)piperidin-1-yl)-4-oxobutyl)biphenyl-4-yl)-2-methoxyacetamide]",< 0.1
6,"COCCCn1c([C@@H]2CCCN(C(=O)[C@@H]3CN(C(=O)C(C)C)C[C@H]3N)C2)nc2ccccc21 [Compound 396, 1-((3S,4R)-3-amino-4-((R)-3-(1-(3-methoxypropyl)-1H-benzo[d]imidazol-2-yl)piperidine-1-carbonyl)pyrrolidin-1-yl)-2-methylpropan-1-one]",> 1
7,"COCCCn1c([C@@H]2CCCN(C(=O)[C@@H]3CN(C(=O)c4ccccc4Cl)C[C@H]3N)C2)nc2ccccc21 [Compound 398, ((3R,4S)-4-amino-1-(2-chlorobenzoyl)pyrrolidin-3-yl)((R)-3-(1-(3-methoxypropyl)-1H-benzo[d]imidazol-2-yl)piperidin-1-yl)methanone]",> 1
8,"COCCCn1c([C@@H]2CCCN(C(=O)C[C@H](N)CNC(=O)c3ccc(OC)cc3)C2)nc2ccccc21 [Compound 280, N-((S)-2-amino-4-((R)-3-(1-(3-methoxypropyl)-1H-benzo[d]imidazol-2-yl)piperidin-1-yl)-4-oxobutyl)-4-methoxybenzamide]",0.1 to 1
9,"COCCCn1c(C2CCCN(C(=O)C[C@H](N)Cc3ccc4ccccc4c3)C2)nc2ccc(OC)nc21 (stereo partly drawn) [Compound 100, (R)-3-amino-1-(3-(5-methoxy-3-(3-methoxypropyl)-3H-imidazo[4,5-b]pyridin-2-yl)piperidin-1-yl)-4-(naphthalen-2-yl)butan-1-one]",0.1 to 1
10,"COCCCn1c([C@@H]2CCCN(C(=O)C[C@H](N)CNC(=O)Nc3cc(OC)ccc3OC)C2)nc2ccccc21 [Compound 273, 1-((S)-2-amino-4-((R)-3-(1-(3-methoxypropyl)-1H-benzo[d]imidazol-2-yl)piperidin-1-yl)-4-oxobutyl)-3-(2,5-dimethoxyphenyl)urea]",0.1 to 1
11,"COCCCn1c([C@@H]2CCCN(C(=O)C[C@H](N)Cc3ccncc3)C2)nc2ccccc21 [Compound 78, (R)-3-amino-1-((R)-3-(1-(3-methoxypropyl)-1H-benzo[d]imidazol-2-yl)piperidin-1-yl)-4-(pyridin-4-yl)butan-1-one]",> 1
12,"COCCCn1c([C@@H]2CCCN(C(=O)C[C@H](N)CNC(=O)c3ccc(Oc4ccccc4)cc3)C2)nc2ccccc21 [Compound 278, N-((S)-2-amino-4-((R)-3-(1-(3-methoxypropyl)-1H-benzo[d]imidazol-2-yl)piperidin-1-yl)-4-oxobutyl)-4-phenoxybenzamide]",0.1 to 1
13,"COCCCn1c([C@@H]2CCCN(C(=O)[C@@H]3CN(S(=O)(=O)c4cc(C)ccc4OC)C[C@H]3N)C2)nc2ccccc21 [Compound 410, ((3R,4S)-4-amino-1-(2-methoxy-5-methylphenylsulfonyl)pyrrolidin-3-yl)((R)-3-(1-(3-methoxypropyl)-1H-benzo[d]imidazol-2-yl)piperidin-1-yl)methanone]",> 1
14,"COCCCn1c([C@@H]2CCCN(C(=O)C[C@H](N)Cc3ccc(C(=O)NC4CCCCC4)cc3)C2)nc2ccccc21 [Compound 203, 4-((R)-2-amino-4-((R)-3-(1-(3-methoxypropyl)-1H-benzo[d]imidazol-2-yl)piperidin-1-yl)-4-oxobutyl)-N-cyclohexylbenzamide]",0.1 to 1
15,"CC(=O)NCCn1c([C@@H]2CCCN(C(=O)C[C@H](N)Cc3ccc(-c4ccc5c(c4)OC(F)(F)O5)cc3)C2)nc2ccccc21 [Compound 448, N-(2-(2-((R)-1-((R)-3-amino-4-(4-(2,2-difluorobenzo[d][1,3]dioxol-5-yl)phenyl)butanoyl)piperidin-3-yl)-1H-benzo[d]imidazol-1-yl)ethyl)acetamide]",0.1 to 1

# Other lines, results leading:
row,IC50 [µM],SMILES
1,> 1,"COCCCn1c([C@@H]2CCCN(C(=O)C[C@H](N)CNC(=O)NC3CCCCC3)C2)nc2ccccc21 [Compound 323, 1-((S)-2-amino-4-((R)-3-(1-(3-methoxypropyl)-1H-benzo[d]imidazol-2-yl)piperidin-1-yl)-4-oxobutyl)-3-cyclohexylurea]"
2,< 0.1,"COCCCn1c([C@@H]2CCCN(C(=O)C[C@H](N)Cc3ccc(-c4ccc(N5CCNC5=O)cc4)cc3)C2)nc2c(F)cccc21 [Compound 441, 1-(4′-((R)-2-amino-4-((R)-3-(4-fluoro-1-(3-methoxypropyl)-1H-benzo[d]imidazol-2-yl)piperidin-l-yl)-4-oxobutyl)biphenyl-4-yl)imidazolidin-2-one]"
3,< 0.1,"CC(=O)NCCn1c([C@@H]2CCCN(C(=O)C[C@H](N)Cc3ccc(-c4ccc5c(c4)CC(=O)N5)cc3)C2)nc2ccccc21 [Compound 465, N-(2-(2-((R)-1-((R)-3-amino-4-(4-(2-oxoindolin-5-yl)phenyl)butanoyl)piperidin-3-yl)-1H-benzo[d]imidazol-1-yl)ethyl)acetamide]"
4,< 0.1,"COCCCn1c([C@@H]2CCCN(C(=O)C[C@H](N)Cc3ccc4ccccc4c3)C2)nc2cccc(Cl)c21 [Compound 97, (R)-3-amino-1-((R)-3-(7-chloro-1-(3-methoxypropyl)-1H-benzo[d]imidazol-2-yl)piperidin-1-yl)-4-(naphthalen-2-yl)butan-1-one]"
5,> 1,"O=C(Nc1ccc2c(c1)OCO2)N1CCCC(c2nc3ccccc3[nH]2)C1 (stereo not shown) [Compound 11, N-(benzo[d][1,3]dioxol-5-yl)-3-(1H-benzo[d]imidazol-2-yl)piperidine-1-carboxamide]"
6,0.1 to 1,"COCCCn1c([C@@H]2CCCN(C(=O)C[C@H](N)CNC(=O)Nc3ccccc3OC(F)(F)F)C2)nc2ccccc21 [Compound 265, 1-((S)-2-amino-4-((R)-3-(1-(3-methoxypropyl)-1H-benzo[d]imidazol-2-yl)piperidin-1-yl)-4-oxobutyl)-3-(2-(trifluoromethoxy)phenyl)urea]"
7,< 0.1,"COCCCn1c([C@@H]2CCCN(C(=O)C[C@H](N)Cc3ccc(-c4ccc(C(=O)NCCO)cc4Cl)cc3)C2)nc2ccccc21 [Compound 192, 4′-((R)-2-amino-4-((R)-3-(1-(3-methoxypropyl)-1H-benzo[d]imidazol-2-yl)piperidin-1-yl)-4-oxobutyl)-2-chloro-N-(2-hydroxyethyl)biphenyl-4-carboxamide]"
8,< 0.1,"COCCCn1c([C@@H]2CCCN(C(=O)C[C@H](N)Cc3ccc(-c4ccc(C(=O)NC(CO)CO)cc4)cc3)C2)nc2ccccc21 [Compound 184, 4′-((R)-2-amino-4-((R)-3-(1-(3-methoxypropyl)-1H-benzo[d]imidazol-2-yl)piperidin-1-yl)-4-oxobutyl)-N-(1,3-dihydroxypropan-2-yl)biphenyl-4-carboxamide]"
9,0.1 to 1,CC(=O)NCCn1c([C@@H]2CCCN(C(=O)C[C@H](N)Cc3ccc(-c4ccc5c(c4)NC(=O)CO5)cc3)C2)nc2ccccc21 [Compound 469]
10,> 1,"O=C(Nc1ccc2ccccc2c1)N1CCCC(c2nc3ccccc3[nH]2)C1 (stereo not shown) [Compound 4, 3-(1H-benzo[d]imidazol-2-yl)-N-(naphthalen-2-yl)piperidine-1-carboxamide]"
11,< 0.1,"COCCCn1c([C@@H]2CCCN(C(=O)C[C@H](N)Cc3ccc(-n4c(=O)[nH]c5cc(C)c(C)cc54)cc3)C2)nc2ccccc21 [Compound 219, 1-(4-((R)-2-amino-4-((R)-3-(1-(3-methoxypropyl)-1H-benzo[d]imidazol-2-yl)piperidin-1-yl)-4-oxobutyl)phenyl)-5,6-dimethyl-1H-benzo[d]imidazol-2(3H)-one]"
12,> 1,"N[C@@H](CC(=O)N1CCCC(c2nc3ccccc3[nH]2)C1)c1ccc(C(F)(F)F)cc1 (stereo partly drawn) [Compound 25, (3S)-1-(3-(1H-benzo[d]imidazol-2-yl)piperidin-1-yl)-3-amino-3-(4-(trifluoromethyl)phenyl)propan-1-one]"
